Results on six compounds are retold here after PMC11321617 (Advanced Science, 2024).

For assay [1], the system named is Salmonella typhimurium SL1344. Nature of the assay: MIC assay (microplate broth dilution). The assay is classed as cell-based. The conditions noted are these: Salmonella enterica, 18 h. On the procedure:
(§1) The MICs of the peptides were determined using the microplate broth dilution method.^[ [32] ^] The bacteria in the mid‐log phase were diluted to 5 × 10^5 colony forming units (CFU) mL^−1 in TSB. 100 µL of serially diluted peptide solution and 100 µL of diluted bacteria were put to a sterile 96‐well plate.
(In general: Broth dilution looks for growth in wells or tubes with falling amounts of substance.)

Assay [2] relates to Listeria monocytogenes EGD. Put plainly: microbe, parasite or virus in culture. The note with it: 18 h. As for the experimental part:
as §1

The subject of assay [3] is Listeria monocytogenes ATCC19115. Put plainly: microbe, parasite or virus in culture. The conditions noted are these: ATCC19115, 18 h. On the procedure: as §1
Assay [4] concerns Listeria monocytogenes 10403S. Put plainly: microbe, parasite or virus in culture. The conditions noted are these: 18 h. As for the experimental part:
as §1

Assay [5] deals with Bacillus subtilis BL‐4. Put plainly: microbe, parasite or virus in culture. The note with it: 18 h. As for the experimental part: as §1
For assay [6], the system named is Enterococcus faecalis ATCC51299. Nature of the assay: microbe, parasite or virus in culture. It counts as cell-based. The conditions noted are these: ATCC51299, 18 h. As for the experimental part:
as §1

Assay [7] relates to Staphylococcus aureus ATCC25923. Put plainly: microbe, parasite or virus in culture. The assay is classed as cell-based. The conditions noted are these: broth dilution, TSB, 5 × 10^5 CFU mL^−1, 18 h, 37 °C. On the procedure:
as §1

Assay [8] has as its system Staphylococcus aureus ATCC25904. Put plainly: microbe, parasite or virus in culture. The assay is classed as cell-based. The note with it: broth dilution, TSB, 5 × 10^5 CFU mL^−1, 18 h, 37 °C. As for the experimental part:
as §1

In assay [9] the test system is Enterococcus faecalis 4P‐SA. Nature of the assay: microbe, parasite or virus in culture. The assay is classed as cell-based. The note with it: broth dilution, TSB, 5 × 10^5 CFU mL^−1, 18 h, 37 °C. As for the experimental part: as §1
The subject of assay [10] is Methicillin‐Resistant Staphylococcus aureus USA300. Put plainly: microbe, parasite or virus in culture. The assay is classed as cell-based. The conditions noted are these: broth dilution, TSB, 5 × 10^5 CFU mL^−1, 18 h, 37 °C, MRSA USA300. As for the experimental part: as §1
Assay [11] deals with Pseudomonas aeruginosa ATCC 27853. Put plainly: microbe, parasite or virus in culture. The assay is classed as cell-based. The conditions noted are these: ATCC27853, broth dilution, TSB, 5 × 10^5 CFU mL^−1, 18 h, 37 °C. As for the experimental part:
as §1

Assay [12] has as its system Klebsiella pneumoniae K7. Nature of the assay: microbe, parasite or virus in culture. The conditions noted are these: broth dilution, TSB, 5 × 10^5 CFU mL^−1, 18 h, 37 °C. The assay is classed as cell-based. On the procedure:
as §1

Assay [13] concerns Staphylococcus epidermidis YYF‐771. Put plainly: microbe, parasite or virus in culture. The assay is classed as cell-based. The conditions noted are these: broth dilution, TSB, 5 × 10^5 CFU mL^−1, 18 h, 37 °C. On the procedure:
as §1

Assay [14] concerns Staphylococcus aureus ATCC29213. Put plainly: microbe, parasite or virus in culture. The assay is classed as cell-based. The note with it: broth dilution, TSB, 5 × 10^5 CFU mL^−1, 18 h, 37 °C. On the procedure:
as §1

Assay [15] relates to Salmonella pullorum ATCC19945. Nature of the assay: microbe, parasite or virus in culture. The conditions noted are these: Salmonella enterica, broth dilution, TSB, 5 × 10^5 CFU mL^−1, 18 h, 37 °C. It counts as cell-based. As for the experimental part:
as §1

The test system of assay [16] is E. coli O157:H7. Put plainly: Time‐kill kinetics. It counts as cell-based, Escherichia coli. The note with it: 4 × MIC, 1 × 10^5 CFU mL^−1 E. coli O157:H7, 37 °C; n = 3. On the procedure: During the logarithmic growth phase, 1 × 10^5 CFU mL^−1 of E. coli O157:H7 was diluted in 1 mL, the peptides were incubated with the bacterial solution for several intervals.^[ [42] ^] The solution was diluted to a suitable ratio and evenly distributed across the TSB agar plates. Before being counted, colonies were cultured for one night at 37 °C.

In assay [17] the test system is Escherichia coli O157:H7. The assay is classed as cell-based. The note with it: broth dilution, TSB, 5 × 10^5 CFU mL^−1, 18 h, 37 °C. On the procedure:
as §1

Assay [18] has as its system persisters induced from E. coli. Nature of the assay: Bactericidal activity against persisters. The note with it: colistin at 4 × MIC (25 µmol L^−1), 24 h; rifampicin‐induced E. coli persisters; n = 3. The assay is classed as cell-based, Escherichia coli. As for the experimental part: Previously recognized and widely used procedures for developing persisters. The bacterial cells, with a turbidity of 0.8 at 600 nm, were obtained in the mid‐log phase. The culture was cultured at 37 °C for 30 min after 100 µg mL^−1 rifampicin (Macklin, Shanghai, China) was added. The rifampicin‐treated culture was centrifuged, and the pellet was resuspended in TSB containing ampicillin (final concentration: 300 µg mL^−1; Macklin, Shanghai, China) to remove nonpersister cells. […] Then cultured for 24 h, spotted on TSB agar, and incubated overnight at 37 °C.

Assay [19] has as its system diabetic wound infections. The note with it: cecropin ref 27b, SCIBIOIII ref 28, QHREDGS ref 29, LL‐37 ref 30; cited from earlier work. An excerpt:
A significant concern in diabetic wound infections is the complexity of mixed bacterial infections, contributing to prolonged wound healing times, extended periods of inflammation, and a heightened risk of ulcer recurrence.^[ [26] ^] Naturally, an ointment that eliminates these microorganisms holds enormous promise for treating diabetes patients who have recurring infections and preventing the development of antibiotic resistance and transmission. According to earlier research, this CaAGE hydrogel basis was ideal for the AMPs.^[ [27] ^] in terms of the stability, release profile, and antibacte ...

The subject of assay [20] is drug‐resistant Gram‐positive bacterial infections. The note with it: cited from earlier work. An excerpt: Conventional screening methods have been unsuccessful in discovering new antibiotics in recent years.^[ [16] ^] Traditional screening sources seem overexploited and tend to produce compounds that are already known. However, uncultured bacteria represent a significant and untapped reservoir of novel natural product frameworks.^[ [17] ^] […] In the context of this ...

Values after ≈ are worked out from the molar mass of the structure shown. Bridge positions count the residues as written; N and C are the ends. Square brackets hold non-standard residues; d marks the D form. Peptide text beside a SMILES is read from it. * marks the point of attachment. X1 = CC[C@H](C)CCCCC(=O)*; Dab = NCC[C@H](N)C(=O)O

`CC1(C)S[C@@H]2[C@H](NC(=O)[C@H](N)c3ccccc3)C(=O)N2[C@H]1C(=O)O` [ampicillin, Ampicillin]: the MIC was found to be 12.5 µM (≈ 4.37 µg/mL) in assay [1]; 4.5 µM (≈ 1.57 µg/mL) in [2]; 6.25 µM (≈ 2.18 µg/mL) in assay [3]; 25 µM (≈ 8.74 µg/mL) in assay [4]; 1.57 µM (≈ 0.549 µg/mL) in [5]; 12.5 µM (≈ 4.37 µg/mL) in [6]. Moreover, the MIC in [7] was 1.57 µM (≈ 0.549 µg/mL); in [8], over 71.6 µM; in [9], over 71.6 µM; in assay [10], 71.6 µM (≈ 25 µg/mL); in assay [11], over 71.6 µM; in assay [12] it was over 71.6 µM. For the same compound, the MIC in assay [13] was 1.57 µM (≈ 0.549 µg/mL); in assay [14], 1.57 µM (≈ 0.549 µg/mL); in assay [15], 35.8 µM (≈ 12.5 µg/mL).
On to `CC[C@H](C)CCCCC(=O)N[C@@H](CCN)C(=O)N[C@H](C(=O)N[C@@H](CCN)C(=O)N[C@H]1CCNC(=O)[C@H]([C@@H](C)O)NC(=O)[C@H](CCN)NC(=O)[C@H](CCN)NC(=O)[C@H](CC(C)C)NC(=O)[C@@H](CC(C)C)NC(=O)[C@H](CCN)NC1=O)[C@@H](C)O` [colistin, Colistin] (X1-[Dab]T[Dab][Dab][Dab][dL]L[Dab][Dab]T; lactam 4-C (inferred); N-terminus assumed), for which, in assay [16], the “time to eradicate all E. coli cells” value was found to be 2 h. In addition, in assay [17], the MIC came out at 3.13 µM (≈ 3.66 µg/mL). For the same compound, the effect on persisters result in assay [18] was “had little effect on the survival”.
Take LL‐37: the “bacterial count reduction / wound healing in diabetic wound infections” value in assay [19] was “none of these peptides demonstrated the capacity to significantly reduce bacterial counts by ≈3‐log or expedite wound healing within a 10‐day timeframe”.
On to “QHREDGS [AMP researched for diabetic wound infections]”, for which, in assay [19], the “bacterial count reduction / wound healing in diabetic wound infections” value is “none of these peptides demonstrated the capacity to significantly reduce bacterial counts by ≈3‐log or expedite wound healing within a 10‐day timeframe”.
Take cecropin: the “bacterial count reduction / wound healing in diabetic wound infections” value in assay [19] is “none of these peptides demonstrated the capacity to significantly reduce bacterial counts by ≈3‐log or expedite wound healing within a 10‐day timeframe”.
Consider clovibactin, for which, in assay [20], the efficacy entry is recorded as “effectively controlling drug‐resistant Gram‐positive bacterial infections”.
